The values that follow come from article PMC5399295 (Nature Communications, 2017).

Test [1] concerns the target T1, β2-adaptin (Homo sapiens, UniProt P63010).
T1 construct: gene AP2B1; residues 700-937 StrepTagII used only for DSF
As to the kind of experiment: cell-based. The arrangement: species or system HEK293T. The note with it: β-arrestin1/β2-adaptin interaction, V2R stimulated; read-out: IC50 AP2/βarr1 (V2R). The method, then: To assess the potency of these compounds, concentration-response curves of the inhibitory actions of the compounds on the V2R-stimulated β-arrestin/β2-adaptin interaction were carried out. In addition to compounds #33 and #42, compound #1 was included in the analysis as a negative control (Fig. 2a–c). […] First, the reversible mode of action of Barbadin was assessed by incubating cells with Barbadin for 30 min and monitoring BRET between β2-adaptin and β-arrestin1 following, or not, extensive wash before AVP stimulation. […] HEK293T cells stably expressing β2-adaptin-YFP (ref. [24]) were cultured as aforementioned with the addition of G418 in the supplemented DMEM. Forty-eight hours before the experiments, 10 μg of total DNA (adjusted with salmon sperm DNA) was used to transfect 6 × 10^6 cells per ml in 10-cm dishes using 25-kDa linear PEI as a transfecting agent (3:1 PEI/DNA ratio). […] On the day of the BRET experiment, cells were washed, detached and resuspended in Tyrode's buffer. Cells (10^5 cells per well) were distributed in 96-wells microplates. DMSO or compounds selected from the virtual screening were preincubated for 30 min at indicated concentrations, always keeping DMSO at 1% final concentration in each well. Cells were treated with AVP or ISO at the indicated times and concentrations, at room temperature. Coelenterazine H (for YFP BRET acceptor) or coelenterazine 400 A (for GFP10 BRET acceptor) was added at a final concentration of 2.5 μM five minutes before measurements. Readings were collected with a Mithras LB 940 multidetector plate reader (Berthold Technologies) to integrate signals detected in the 485/20 nm and 530/25 nm windows for the Renilla luciferase (RlucII) and YFP light emissions, respectively, and in the 400/70 nm and 515/25 nm windows for the RlucII and GFP10 light emissions, respectively. The BRET signal was determined by calculating the ratio of the light intensity emitted by the YFP or GFP10 over the light intensity emitted by the RlucII. Net BR

For test [2], the target named is T1, β2-adaptin. As to the kind of experiment: differential scanning fluorimetry (CPM dye) on purified β2-appendage, dose-dependent Tm shift; supported by GST-β2-adaptin([…]) pull-down and cell BRET (IC50 […] for β-arrestin1, from cell BRET). The class given is cell-based. Background: DSF heats the sample and reads unfolding from a dye or from intrinsic fluorescence.
In test [3] the test system is β2-adaptin. The test is described as follows: cells. The arrangement: species or system HEK293T; ebBRET receptor-RlucII with rGFP-FYVE, inhibition of agonist-induced receptor accumulation in early endosomes. The note with it: Homo sapiens, HEK-293T, 0.5 h. The source says: (§1) Because the interaction between β-arrestins and β2-adaptin is important for initiating receptor internalization, we next sought to determine whether Barbadin could be used as a pharmacological tool, to block the ligand-promoted endocytosis of GPCRs. For this purpose, we used enhanced bystander BRET (ebBRET) trafficking sensors allowing to monitor both receptor disappearance from the plasma membrane (rGFP-CAAX sensor, Fig. 4a) and their accumulation in early endosomes (rGFP-FYVE, Fig. 4e) in spectrometric and microscopy-based assays. […] The effect of Barbadin on endocytosis was further confirmed using BRET-microscopy allowing to image receptor localization at the plasma membrane (Fig. 4i and Supplementary Fig. 5i), and in early endosomes (Supplementary Fig. 5j), coherent with the spectrometric measurements (Fig. 4b–d,f–h).  Figure 4 Barbadin inhibits GPCRs endocytosis. (a,e) Schematic representation of the ebBRET-based assay used to follow agonist-induced receptor loss from the cell surface by monitoring the interaction between receptor-RLucII and rGFP-CAAX (a) or its translocation into endosomes using rGFP-FYVE (e). (b–d,f–h) V2R, β2AR or AT1R interaction with either rGFP-CAAX (b–d, respectively) or rGFP-FYVE (f–h, respectively) was assessed by BRET following HEK293T cells pre-incubation with DMSO or Barbadin (100 μM) for 30 min before AVP (100 nM), ISO (10 μM) or AngII (1 μM) stimulation for the indicated times. Data are the mean±s.e.m. of a least three independent experiments. (i) V2R localization was imaged by BRET. HEK293T cells were transfected with V2R-RlucII and rGFP-CAAX, pretreated with DMSO or Barbadin (100 μM) for 30 min and then stimulated with 100 nM AVP for 30 min. To generate BRET images, the ratio of acceptor photon counts to donor photon counts was calculated for each pixel and expressed as a colour-coded heat map (lowest being black and purple, and highest red and white). Scale bar, 10 μm.

In test [4] the test system is β2-adaptin. The test is described as follows: cells. The arrangement: species or system HEK293T; ebBRET receptor-RlucII with rGFP-CAAX, inhibition of agonist-induced receptor loss from plasma membrane. The note with it: Homo sapiens, HEK-293T, 0.5 h; β2AR endocytosis, ISO 10 uM 30 min; read-out: IC50 membrane localization β2AR.
From the text: as §1, with “4b–d,f–h).” for “4b–d,f–h). ”, “(a,e) Schematic representation of the ebBRET-based assay used to follow agonist-induced receptor loss from the cell surface by monitoring the interaction between receptor-RLucII and rGFP-CAAX (a) or its translocation into endosomes using rGFP-FYVE (e).” left out, “Data are the mean±s.e.m. of a least three independent experiments. (i) V2R localization was imaged by BRET. HEK293T cells were transfected with V2R-RlucII and rGFP-CAAX, pretreated with DMSO or Barbadin (100 μM) for 30 min and then stimulated with 100 nM AVP for 30 min.” left out, “Scale bar, 10 μm.” left out

In test [5] the target is T2, β2-adaptin(700–937)-StrepTagII (human, UniProt P63010 700-937).
T2 construct: human β2-adaptin, residues 700 to 937 (appendage domain); printed molecular weight 26.88 kDa; Cloned into pRSETA between BamHI and Acc65I; also called β2-appendage; β-appendage; source: E. coli BL21 pLysS, purified (Strep-Tactin Sepharose, sepharose column, gel filtration)
T2 sequence (looked up): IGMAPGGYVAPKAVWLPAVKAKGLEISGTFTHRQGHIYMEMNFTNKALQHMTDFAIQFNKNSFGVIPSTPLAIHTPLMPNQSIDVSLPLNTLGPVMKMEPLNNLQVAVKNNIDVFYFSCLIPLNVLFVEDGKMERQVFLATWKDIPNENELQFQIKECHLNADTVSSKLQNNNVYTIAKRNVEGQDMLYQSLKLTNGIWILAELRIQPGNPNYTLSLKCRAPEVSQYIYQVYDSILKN
As to the kind of experiment: differential scanning fluorimetry (thermal shift); 0.78 μM purified β2-adaptin (700–937) in PBS with 0.5 mM Triton X-100, 30 min with 20 μM β-arrestin1 C-terminal peptide; CPM dye; 30 °C to 90 °C at 6 °C per min. The note with it: both partners purified.

Like-named read-outs stand apart in the source and are kept apart here.

T1 sequence (P63010 2-937): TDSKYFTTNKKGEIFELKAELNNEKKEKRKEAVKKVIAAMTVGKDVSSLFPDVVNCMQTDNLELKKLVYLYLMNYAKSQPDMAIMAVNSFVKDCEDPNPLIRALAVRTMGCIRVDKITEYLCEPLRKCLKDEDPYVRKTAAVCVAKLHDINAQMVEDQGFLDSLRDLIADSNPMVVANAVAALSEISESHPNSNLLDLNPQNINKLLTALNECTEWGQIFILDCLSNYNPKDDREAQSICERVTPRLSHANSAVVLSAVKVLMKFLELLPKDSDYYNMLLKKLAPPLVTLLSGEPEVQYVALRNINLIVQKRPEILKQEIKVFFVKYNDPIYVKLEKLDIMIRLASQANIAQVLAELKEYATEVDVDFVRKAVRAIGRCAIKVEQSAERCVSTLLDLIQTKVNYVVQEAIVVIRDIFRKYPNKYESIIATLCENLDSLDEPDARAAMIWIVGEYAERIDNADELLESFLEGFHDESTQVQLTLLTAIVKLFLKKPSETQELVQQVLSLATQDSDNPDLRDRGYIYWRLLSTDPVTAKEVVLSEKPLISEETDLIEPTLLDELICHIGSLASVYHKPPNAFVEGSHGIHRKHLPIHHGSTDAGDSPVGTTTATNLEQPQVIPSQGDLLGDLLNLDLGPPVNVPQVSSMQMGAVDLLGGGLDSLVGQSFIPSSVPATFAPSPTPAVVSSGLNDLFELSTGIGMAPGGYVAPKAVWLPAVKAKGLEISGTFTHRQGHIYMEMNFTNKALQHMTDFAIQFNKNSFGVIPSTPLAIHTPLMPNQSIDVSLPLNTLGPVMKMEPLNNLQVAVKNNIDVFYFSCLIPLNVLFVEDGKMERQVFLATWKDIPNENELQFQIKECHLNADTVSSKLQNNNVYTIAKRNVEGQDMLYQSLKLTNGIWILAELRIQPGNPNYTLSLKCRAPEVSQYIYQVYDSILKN
T1 sequence (P49407 whole entry partner, the tested form may be a part): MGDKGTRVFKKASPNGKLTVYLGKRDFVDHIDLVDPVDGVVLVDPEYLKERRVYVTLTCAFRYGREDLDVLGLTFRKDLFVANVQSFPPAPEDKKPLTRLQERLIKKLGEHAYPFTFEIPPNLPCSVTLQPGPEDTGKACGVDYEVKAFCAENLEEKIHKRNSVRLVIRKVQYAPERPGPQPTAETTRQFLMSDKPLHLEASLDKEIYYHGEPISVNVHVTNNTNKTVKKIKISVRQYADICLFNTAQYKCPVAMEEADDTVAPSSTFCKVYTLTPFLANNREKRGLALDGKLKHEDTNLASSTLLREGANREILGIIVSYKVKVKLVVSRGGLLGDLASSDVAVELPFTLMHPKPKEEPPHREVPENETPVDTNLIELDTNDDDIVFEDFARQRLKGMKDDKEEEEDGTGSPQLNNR

As for `Nn1cnc2scc(-c3ccc(Cc4ccccc4)cc3)c2c1=O` [#42, 3-amino-5-(4-benzylphenyl)-3H,4H-thieno[2,3-d]pyrimidin-4-one], the IC50 came to 14.6 ± 5 µM at β2-adaptin [1]; 19.1 µM on β2-adaptin [2]; 40.6 ± 24.4 µM in the test with β2-adaptin [3] (AT1R endocytosis, AngII 1 uM 30 min, read-out: IC50 endosome localization AT1R); 31.5 ± 14.4 µM in the test with β2-adaptin [3] (V2R endocytosis, AVP 100 nM 30 min, read-out: IC50 endosome localization V2R); 18.4 ± 9.8 µM in the test on β2-adaptin [3] (β2AR endocytosis, ISO 10 uM 30 min, read-out: IC50 endosome localization β2AR); 18.2 ± 7.7 µM in the test with β2-adaptin [4].

Take `Nn1cnc2scc(-c3ccc(-c4ccccc4)cc3)c2c1=O` [Analogue-C]: the IC50 on β2-adaptin [1] worked out at 54.3 ± 45 µM.

As to `Cc1nc2scc(-c3ccc(C(C)(C)C)cc3)c2c(=O)n1N` [Cpd #43], the IC50 at β2-adaptin [1] was found to be 15.4 ± 6.4 µM.

B1: β-arrestin1 C-terminal peptide (peptide)
peptide: DDDIVFEDFARQRLKGMKDD
notes: C-terminal stretch of β-arrestin1; holds Phe-388, Phe-391 and Arg-395; also called β-arrestin1 C-tail peptide; 20-mer β-arrestin C-tail peptide; source: synthetic peptide (Genscript)
Take B1: the binding result in test [5] is reported as “binds”.
